Measurements from patent publication US20250031679A1, “SCREENING METHOD OF PROBIOTIC AND ACTIVE SUBSTANCE FOR PROMOTING RE[…] AND USE” (Xuzhou Medical University, priority 2023, published 2025).

Tested on: wild-type N2 C. elegans
Procedure: The synchronized L1-stage nematodes were diluted to 20 to 30 nematodes/10 μL. The L1-stage C. elegans was collected in the S broth and cultured in a 96-well plate (365 μL/well). 165 μL of medium, 20 μL of different concentrations of CTX treatment groups, 10 μL of L1-stage nematodes, and 5 μL of OP50 were added in sequence into the 96-well plate, and the nematodes were cultured in a biological incubator at 20° C. for 72 h, where each concentration was set with 10 groups in parallel.
The CTX was set up in three exposure groups from low to high, with concentrations being 500 μg/mL, 1 mg/mL, and 2 mg/mL. At the same time, a blank control was set up.
The nematodes treated with different concentrations of drugs were transferred to NGM, and only one nematode was placed on each medium. The one nematode was picked to a new medium every day with a worm picker. After nematodes produced by this one nematode on the old medium grew to adults, the number of nematodes on the NGM plates with different concentrations of CTX was counted until this one nematode no longer lay eggs. A sum of the number of nematodes exchanged every day was the number of eggs laid and hatched in a whole reproductive cycle of the nematode, and the reproductive capacity of the nematode was determined based on this.
L1-stage C. elegans was obtained according to the protocol in Example 1, and was treated with the CTX at a concentration of 1 mg/mL according to Example 1. Effect of treatment time on the reproductive capacity of the C. elegans was investigated.
Nematodes in L1 to L4 stages were used to construct models and the rest of the steps were conducted according to the method in Example 1.
At 20° C. a blank control group and a CTX treatment group were given pure OP50 bacterial solution and 1 mg/mL CTX/OP50 bacterial solution, respectively. Food were supplemented every 24 h, and whether the nematodes survived normally was observed. After treated in S broth for 72 h, the nematodes in the blank group and the CTX treatment group were transferred to NGM with food OP50, and one nematode was placed on each medium. The one nematode was picked to a new medium every day with a worm picker After nematodes produced by this one nematode on the old medium grew to adults, the number of nematodes on NGM plates of the blank group and the CTX treatment group was counted until this one nematode no longer lay eggs.

Q: With `O=P1(N(CCCl)CCCl)NCCCO1` (centres unmarked) [CTX, cyclophosphamide] as the compound, how does the “reproductive capacity of C. elegans as a function of CTX concentration” value (500 μg/mL to 2 mg/mL, L1-stage, S broth, 72 h) read?
A: decreased with the increase of concentration

Q: What about the “total number of reproduced C. elegans compared with the control” value (CTX 1 mg/mL, 48 h to 96 h treatment) of the same compound?
A: significantly reduced

Q: And the “reduction of reproductive capacity (total number of nematodes reproduced) compared with blank control group” value (CTX 1 mg/mL, L1-stage nematodes, S broth, 20° C., 72 h)?
A: 50%

Q: What about the “total reproduced C. elegans” value (CTX 1 mg/mL, treated for 72 h) of the same compound?
A: reduced to the minimum

Q: And the fecundity of nematodes (drug treatment at different larval stages L1 to L4)?
A: significantly reduce the fecundity
